Reference: US9573972B2, “Nurotoxic sterol glycosides” (priority 2008, dated 2017)
Entries after “also recorded” stand apart in the source; their conditions may differ.

System: Phosphorylated tau aggregates
Assay: Tau immunohistochemistry
Format: in vivo, mouse
Design: key to Phosphorylated tau aggregates: − = not present; + = present
Details: for Phosphorylated tau aggregates: SG-fed
Description: Slide-mounted lumbar and thoracic spinal cord and brain sections were first rinsed for 45 minutes in 3 changes of PBS then quenched in 3% H2O2 in PBST (PBS+0.5% Triton X-100) for 10 minutes. The slides were rinsed for 4 minutes in 2 changes of PBST. The MOM mouse Ig blocking reagent was prepared as per the manufacturer's instructions. Two drops of mouse Ig stock solution was added to 2.5 mL of PBS. The sections were incubated with this solution for 1 hour at RT. Following this step, sections were rinsed for 4 minutes in 2 changes of PBST and incubated (5 minutes) with the MOM diluent solution prepared by adding 600 V1 of MOM protein concentrate to 7.5 mL of PBS. The diluent was tipped off the slides and replaced by a solution comprised of primary phospho-Tau antibody diluted at 1:100 in the diluent solution prepared in the same manner as discussed above. The sections were incubated for 60 minutes at RT. Subsequently, sections were rinsed for 4 minutes in 2 changes of PBST and incubated for 10 minutes in the MOM biotinylated anti-mouse IgG reagent (10 V1 of MOM biotinylated anti-mouse IgG diluted in 2.5 mL of the MOM diluents). The sections were then rinsed in PBST and incubated (1 hour at RT) with the secondary antibody prepared by combining one drop of secondary antibody (biotinylated goat-anti-rabbit IgG) from the Vectastain ABC Elite kit (Vector Laboratories, Burlingame, Calif., USA) was combined with 3 drops of serum stock to 10 mL of PBST. At 30 minutes after start of slide incubation with the secondary antibody, an immunoperoxidase solution was prepared by adding 2 drops of reagent A and 2 drops of reagent B (Vectastain Elite ABC kit, Vector Laboratories, Burlingame, Calif., USA) to 2.5 mL of PBST. After one hour incubation of the slides with the secondary antibody solution, the slides were rinsed for 4 minutes in two changes of PBST and incubated for 30 minutes in the working immunoperoxidase solution. Next, the sections were rinsed for 4 minutes in 2 changes of PBST. During the rinses, the DAB liquid substrate was prepared for the next step. As per manufacturer's instructions, 2 drops of buffer stock solution, 5 mL of ddH2O, 4 drops of DAB stock solution, and 2 drops of hydrogen peroxide solution were combined. The slides were incubated for 3 minutes at RT with this DAB solution and monitored for color development. The sections were rinsed for 5 minutes in ddH2O to stop the reaction and rid slides of DAB substrate. A methyl green nuclear counterstain was used to elucidate nuclei and motor neuron somata. The 0.5% methyl green counterstain was prepared in the following manner: First, the sodium acetate buffer was prepared with 1.36 g of sodium acetate trihydrate to 100 mL of distilled water adjusted to pH 4.2 using glacial acetic acid. For every 100 mL of buffer, 0.5 g of methyl green (ethyl violet, Sigma-Aldrich, Oakville, ON, Canada) was added to make a 0.5% methyl green solution. Slide-mounted sections were stained in the above methyl green solution for 5 minutes at RT. Sections were rinsed in distilled water, until the water became clear. […]
The numbers of immunoreactive somata or inclusions were counted across the ventral horn of the spinal cord, across brain hemispheres, or per dorsal or ventral root with the 40× objective lens in a 600 μm/600 μm area within region perimeters defined by a mouse brain atlas (2001). […]

`CC[C@H](/C=C/[C@@H](C)[C@H]1CC[C@H]2[C@@H]3CC=C4C[C@@H](O[C@@H]5O[C@H](CO)[C@@H](O)[C@H](O)[C@H]5O)CC[C@]4(C)[C@H]3CC[C@]12C)C(C)C` [SG, Stigmasterol β-D-Glucopyranoside] was tested, and the “Apoptosis of phosphorylated-tau containing cells” value (SG-fed animals at 52 weeks) was “majority of the phosphorylated-tau containing cells were actively undergoing apoptosis”, the Phosphorylated tau aggregates (Time-point 1 (35 wk)) was “−” and the Phosphorylated tau aggregates (Time-point 2 (52 wk)) was “+”. The “Phosphorylated tau aggregates, incidence in SG-fed group” value (Time-point 2 (52 wk)) was 2/8 and the “Accumulation of phosphorylated tau” value (ventral horn of lumbar spinal cord, SG-fed mice, none in non-treated mice) was “induced accumulation of phosphorylated tau; also recorded: Phosphorylated Tau aggregates were observed”.
